Reference: US11504364B2, “Inhibitors of fibroblast activation protein” (Praxis Biotech LLC, priority 2018, dated 2022)
Where two headings read alike, the source gives them in different places.

Assays:
[1] = biological target: T1, recombinant human DPP9 (rhDPP9) (Homo sapiens (Human), UniProt Q86TI2); experiment: DPP9 enzymatic activity assay; format: biochemical; details: Table 3A
[2] = biological target: T1, recombinant human DPP9 (rhDPP9); experiment: Inhibition of DPP9 activity, 10 ng rhDPP9, H-Gly-Pro-AMC; format: biochemical; details: Table 3B
[3] = biological target: circulating FAPα from hamster plasma (Mesocricetus auratus, UniProt A0ABM2XF29); experiment: Ex vivo inhibition of circulating FAPα activity in hamster plasma (PRXS-AMC); format: biochemical, Golden Syrian hamster; details: PRXS-AMC substrate
circulating FAPα from hamster plasma, sequence (A0ABM2XF29 1-761): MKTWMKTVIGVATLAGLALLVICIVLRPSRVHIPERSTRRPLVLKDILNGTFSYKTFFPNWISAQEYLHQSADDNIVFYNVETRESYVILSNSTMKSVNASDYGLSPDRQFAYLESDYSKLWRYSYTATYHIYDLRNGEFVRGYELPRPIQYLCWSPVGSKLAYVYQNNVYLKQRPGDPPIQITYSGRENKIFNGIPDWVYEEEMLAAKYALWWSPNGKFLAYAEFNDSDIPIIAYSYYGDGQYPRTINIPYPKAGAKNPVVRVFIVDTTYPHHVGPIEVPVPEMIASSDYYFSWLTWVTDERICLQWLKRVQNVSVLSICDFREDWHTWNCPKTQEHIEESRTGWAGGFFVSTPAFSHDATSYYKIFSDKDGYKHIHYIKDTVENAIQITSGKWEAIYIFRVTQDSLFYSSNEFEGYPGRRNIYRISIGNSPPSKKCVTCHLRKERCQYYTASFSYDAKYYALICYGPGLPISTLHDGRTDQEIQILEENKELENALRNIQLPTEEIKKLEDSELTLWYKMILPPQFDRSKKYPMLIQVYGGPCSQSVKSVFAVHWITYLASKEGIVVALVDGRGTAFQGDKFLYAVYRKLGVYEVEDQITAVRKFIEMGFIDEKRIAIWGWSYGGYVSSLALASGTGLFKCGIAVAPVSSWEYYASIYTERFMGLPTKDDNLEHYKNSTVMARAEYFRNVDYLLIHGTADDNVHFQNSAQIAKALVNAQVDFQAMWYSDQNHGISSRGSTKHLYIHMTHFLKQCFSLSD
Protocol: Male Golden Syrian hamsters were provided by National Laboratory Animal Center (NLAC) in Taiwan. The animals were maintained in a hygienic environment under controlled temperature (20-24° C.) and humidity (50%-80%) with 12 hours light/dark cycles. Free access to standard lab diet [MFG (Oriental Yeast Co., Ltd. Japan)] and autoclaved tap water were granted. All aspects of this work including housing, experimentation and disposal of animals were performed in general accordance with the “Guide for the Care and Use of Laboratory Animals: Eighth Edition” (National Academies Press, Washington, D.C., 2011). In addition, the animal care and use protocol was reviewed and approved by the IACUC at Pharmacology Discovery Services Taiwan, Ltd. Immediately after the sacrifice of hamsters, blood samples were collected via terminal cardiac puncture in tubes coated with EDTA-K2, mixed gently, then kept on ice and centrifuged at 2,500×g for 15 minutes at 4° C. After plasma separation, samples were stored at −80° C. in aliquots of […]. To assay exemplary compounds in hamster plasma, a similar protocol as described for human plasma was performed diluting thawed plasma 1:2 in assay buffer. […] AMC release was detected measuring fluorescence at an excitation/emission wavelength of 380/460 nm using a Multifunction Microplate Reader. […]

[4] = tested on: human AML cell line MV4-11; experiment: Cytotoxicity assay in human leukemia cell lines (Cell-Titer Glo)
[5] = biological target: recombinant human DPPIV (rhDPPIV) (Homo sapiens (Human), UniProt P27487); experiment: DPPIV enzymatic activity assay; format: biochemical; details: Table 3B
recombinant human DPPIV (rhDPPIV), sequence (P27487 whole entry): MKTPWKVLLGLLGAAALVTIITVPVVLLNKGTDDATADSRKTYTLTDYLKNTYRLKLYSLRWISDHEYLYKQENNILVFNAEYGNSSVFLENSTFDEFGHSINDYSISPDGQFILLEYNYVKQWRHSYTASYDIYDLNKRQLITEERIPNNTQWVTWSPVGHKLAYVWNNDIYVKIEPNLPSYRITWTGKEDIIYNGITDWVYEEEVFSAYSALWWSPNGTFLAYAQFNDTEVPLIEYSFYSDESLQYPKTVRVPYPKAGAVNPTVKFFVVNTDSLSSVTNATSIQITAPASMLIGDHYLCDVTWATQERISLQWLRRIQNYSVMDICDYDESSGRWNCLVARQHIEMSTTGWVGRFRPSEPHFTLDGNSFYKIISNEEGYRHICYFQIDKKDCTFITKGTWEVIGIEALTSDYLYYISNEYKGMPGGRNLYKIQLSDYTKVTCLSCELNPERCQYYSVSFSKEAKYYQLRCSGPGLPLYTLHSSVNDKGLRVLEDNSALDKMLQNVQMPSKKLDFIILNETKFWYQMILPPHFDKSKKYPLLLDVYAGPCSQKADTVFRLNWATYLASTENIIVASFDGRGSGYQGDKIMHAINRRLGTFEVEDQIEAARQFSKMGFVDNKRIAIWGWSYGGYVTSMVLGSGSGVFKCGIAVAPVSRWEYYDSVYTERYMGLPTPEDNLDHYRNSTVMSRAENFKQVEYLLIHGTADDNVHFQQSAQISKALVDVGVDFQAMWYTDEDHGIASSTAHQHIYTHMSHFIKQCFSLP

[6] = biological target: recombinant human FAPα (rhFAPα) (Homo sapiens (Human), UniProt Q12884); experiment: FAPα enzymatic exopeptidase (dipeptidase) activity assay, Z-Gly-Pro-AMC; format: biochemical; details: for inhibition at 1 µM / rhFAPα (% exo inh @ 1 μM): 1 μM test compound, exopeptidase; for inhibition at 1 µM: read-out: rhFAPα (% exo inh @ 1 μM)
recombinant human FAPα (rhFAPα), sequence (Q12884 whole entry): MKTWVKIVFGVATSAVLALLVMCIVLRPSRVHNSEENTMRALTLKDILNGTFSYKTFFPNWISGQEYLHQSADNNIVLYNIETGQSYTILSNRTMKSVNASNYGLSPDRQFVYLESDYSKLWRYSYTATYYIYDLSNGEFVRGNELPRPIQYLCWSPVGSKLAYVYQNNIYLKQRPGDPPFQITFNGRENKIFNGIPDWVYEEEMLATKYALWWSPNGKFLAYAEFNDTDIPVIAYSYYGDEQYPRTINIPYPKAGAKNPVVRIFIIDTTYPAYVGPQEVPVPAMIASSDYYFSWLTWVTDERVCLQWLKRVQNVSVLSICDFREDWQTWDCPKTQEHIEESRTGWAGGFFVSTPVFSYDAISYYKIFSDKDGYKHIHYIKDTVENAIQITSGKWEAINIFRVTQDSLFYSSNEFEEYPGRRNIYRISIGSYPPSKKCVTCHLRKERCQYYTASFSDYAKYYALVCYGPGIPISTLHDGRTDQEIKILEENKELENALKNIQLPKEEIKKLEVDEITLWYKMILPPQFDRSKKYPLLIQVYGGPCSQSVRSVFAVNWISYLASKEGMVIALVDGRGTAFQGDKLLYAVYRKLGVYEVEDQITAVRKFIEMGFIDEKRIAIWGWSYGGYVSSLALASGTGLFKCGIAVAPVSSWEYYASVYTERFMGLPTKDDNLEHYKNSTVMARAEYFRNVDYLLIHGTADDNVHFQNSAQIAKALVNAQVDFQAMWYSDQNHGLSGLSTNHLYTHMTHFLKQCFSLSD

[7] = biological target: recombinant human PREP (rhPREP) (Homo sapiens (Human), UniProt P48147); experiment: PREP enzymatic activity assay; format: biochemical; details: Table 3B
recombinant human PREP (rhPREP), sequence (P48147 whole entry): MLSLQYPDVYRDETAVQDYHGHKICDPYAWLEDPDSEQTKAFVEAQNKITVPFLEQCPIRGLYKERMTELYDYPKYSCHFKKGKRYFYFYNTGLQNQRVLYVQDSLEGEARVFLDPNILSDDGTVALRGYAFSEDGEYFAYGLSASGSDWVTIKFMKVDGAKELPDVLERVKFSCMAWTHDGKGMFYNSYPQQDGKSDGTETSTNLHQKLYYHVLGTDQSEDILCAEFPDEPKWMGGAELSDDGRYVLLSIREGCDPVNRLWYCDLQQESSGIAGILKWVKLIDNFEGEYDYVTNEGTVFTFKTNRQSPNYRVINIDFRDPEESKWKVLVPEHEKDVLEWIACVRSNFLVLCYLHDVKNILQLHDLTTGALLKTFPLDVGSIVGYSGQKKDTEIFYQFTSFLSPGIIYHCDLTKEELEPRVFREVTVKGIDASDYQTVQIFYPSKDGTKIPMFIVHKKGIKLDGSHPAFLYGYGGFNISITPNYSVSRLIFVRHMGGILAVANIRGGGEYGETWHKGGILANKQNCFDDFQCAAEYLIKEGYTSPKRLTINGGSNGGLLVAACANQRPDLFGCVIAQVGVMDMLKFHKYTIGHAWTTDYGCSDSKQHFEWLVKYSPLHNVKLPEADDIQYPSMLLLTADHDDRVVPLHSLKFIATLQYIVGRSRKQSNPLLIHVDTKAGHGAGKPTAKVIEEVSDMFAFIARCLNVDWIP

[8] = biological target: recombinant mouse FAPα (rmFAPα) (Mus musculus (Mouse), UniProt P97321); experiment: FAPα enzymatic exopeptidase (dipeptidase) activity assay, Z-Gly-Pro-AMC; format: biochemical; details: 1 μM test compound
recombinant mouse FAPα (rmFAPα), sequence (P97321 whole entry): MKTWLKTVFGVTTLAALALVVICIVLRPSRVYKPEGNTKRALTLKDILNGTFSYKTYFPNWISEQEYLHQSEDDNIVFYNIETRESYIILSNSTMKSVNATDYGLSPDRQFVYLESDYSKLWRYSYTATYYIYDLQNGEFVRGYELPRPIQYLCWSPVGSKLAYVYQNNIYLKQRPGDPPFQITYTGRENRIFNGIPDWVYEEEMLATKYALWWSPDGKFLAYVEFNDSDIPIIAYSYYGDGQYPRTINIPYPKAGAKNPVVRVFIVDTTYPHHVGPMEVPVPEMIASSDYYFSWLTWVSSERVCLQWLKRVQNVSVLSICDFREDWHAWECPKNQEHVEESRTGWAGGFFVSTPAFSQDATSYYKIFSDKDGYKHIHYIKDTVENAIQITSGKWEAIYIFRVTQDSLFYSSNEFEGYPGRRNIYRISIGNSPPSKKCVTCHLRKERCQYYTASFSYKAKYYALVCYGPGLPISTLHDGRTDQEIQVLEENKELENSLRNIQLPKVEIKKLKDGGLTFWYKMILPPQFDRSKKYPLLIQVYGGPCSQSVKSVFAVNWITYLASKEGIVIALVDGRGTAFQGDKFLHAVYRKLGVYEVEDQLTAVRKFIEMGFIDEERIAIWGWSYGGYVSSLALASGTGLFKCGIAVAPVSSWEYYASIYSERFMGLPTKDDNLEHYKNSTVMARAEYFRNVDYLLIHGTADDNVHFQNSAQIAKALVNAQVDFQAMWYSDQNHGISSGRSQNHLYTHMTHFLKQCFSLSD

[9] = biological target: recombinant mouse DPPIV (rmDPPIV) (Mus musculus (Mouse), UniProt P28843); experiment: DPPIV enzymatic activity assay; format: biochemical; details: Table 3A
[10] = biological target: recombinant mouse PREP (rmPREP) (Mus musculus (Mouse), UniProt Q9QUR6); experiment: PREP enzymatic activity assay; format: biochemical; details: Table 3A
[11] = upon standing in pH 7.8; cyclization; cited from earlier work
[12] = Homo sapiens, MV4-11, 48 h, read-out: MV4-11 viability IC50, μM

T1 sequence (Q86TI2 whole entry): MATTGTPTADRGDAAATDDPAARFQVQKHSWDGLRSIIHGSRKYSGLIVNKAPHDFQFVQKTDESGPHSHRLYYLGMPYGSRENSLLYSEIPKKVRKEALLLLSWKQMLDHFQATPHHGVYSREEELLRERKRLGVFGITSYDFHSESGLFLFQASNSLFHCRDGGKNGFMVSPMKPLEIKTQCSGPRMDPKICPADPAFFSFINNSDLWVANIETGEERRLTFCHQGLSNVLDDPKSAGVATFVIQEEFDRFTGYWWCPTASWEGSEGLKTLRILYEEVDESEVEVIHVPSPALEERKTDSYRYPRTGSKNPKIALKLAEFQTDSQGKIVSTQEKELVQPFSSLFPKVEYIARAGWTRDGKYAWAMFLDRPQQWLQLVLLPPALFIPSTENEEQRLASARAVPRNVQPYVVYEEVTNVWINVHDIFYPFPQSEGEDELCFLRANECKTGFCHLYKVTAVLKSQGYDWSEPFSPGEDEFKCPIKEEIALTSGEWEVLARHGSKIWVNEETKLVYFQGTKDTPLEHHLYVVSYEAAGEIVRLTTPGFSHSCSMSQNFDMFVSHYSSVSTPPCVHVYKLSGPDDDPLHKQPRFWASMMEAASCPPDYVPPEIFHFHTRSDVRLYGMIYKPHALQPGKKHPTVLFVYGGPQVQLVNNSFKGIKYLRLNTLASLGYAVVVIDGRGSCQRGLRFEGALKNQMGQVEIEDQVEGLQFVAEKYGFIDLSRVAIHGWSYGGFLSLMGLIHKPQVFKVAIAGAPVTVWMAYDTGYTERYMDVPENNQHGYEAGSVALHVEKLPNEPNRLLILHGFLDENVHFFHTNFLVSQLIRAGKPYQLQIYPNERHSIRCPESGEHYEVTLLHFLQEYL

**Q.** Which IC50 [1] does the source give for `N#C[C@@H]1CC(F)(F)CN1C(=O)CNC(=O)c1ccnc2ccc(-c3ccc(Cl)cc3)cc12` [Compound 2, (S)-6-(4-chlorophenyl)-N-(2-(2-cyano-4,4-difluoropyrrolidin-1-yl)-2-oxoethyl)quinoline-4-carboxamide] here?
**A.** The IC50 was under 1000 nM.

**Q.** What about the IC50 [2] of the same molecule?
**A.** The IC50 was under 1000 nM.

**Q.** What about the IC50 [3] of the same molecule?
**A.** Its IC50 is under 1000 nM.

**Q.** And the IC50 [4, 12]?
**A.** Its IC50 is 3 to 10 µM.

**Q.** With `N#C[C@@H]1CC(F)(F)CN1C(=O)CNC(=O)c1ccnc2ccc(-c3ccc4cc(Cl)ccc4c3)cc12` [Compound 3, (S)-6-(6-chloronaphthalen-2-yl)-N-(2-(2-cyano-4,4-difluoropyrrolidin-1-yl)-2-oxoethyl)quinoline-4-carboxamide] as the molecule, how does the IC50 [5] read?
**A.** The IC50 was 1000 to 10000 nM.

**Q.** What about the IC50 [2] of the same molecule?
**A.** Its IC50 is under 1000 nM.

**Q.** And the IC50 [4, 12]?
**A.** Its IC50 is 3 to 10 µM.

**Q.** Which IC50 [5] does the source give for `N#C[C@@H]1CC(F)(F)CN1C(=O)CNC(=O)c1ccnc2ccc(-c3ccc4c(c3)CCC(=O)N4)cc12` [Compound 16, (S)—N-(2-(2-cyano-4,4-difluoropyrrolidin-1-yl)-2-oxoethyl)-2′-oxo-1′,2′,3′,4′-tetrahydro-[6,6′-biquinoline]-4-carboxamide] here?
**A.** The IC50 was 1000 to 10000 nM.

**Q.** What about the IC50 [2] of the same molecule?
**A.** The IC50 was under 1000 nM.

**Q.** What about the IC50 [4, 12] of the same molecule?
**A.** Its IC50 is over 10 µM.

**Q.** Which results are given for `N#C[C@@H]1CC(F)(F)CN1C(=O)CNC(=O)c1ccnc2ccc(/C=C/c3ccncc3)cc12` [Compound 19, (S,E)-N-(2-(2-cyano-4,4-difluoropyrrolidin-1-yl)-2-oxoethyl)-6-(2-(pyridin-4-yl)vinyl)quinoline-4-carboxamide]?
**A.** IC50 [5]: 1000 to 10000 nM; IC50 [2]: < 1000 nM; IC50 [4, 12]: < 3 µM

**Q.** For `N#C[C@@H]1CC(F)(F)CN1C(=O)CNC(=O)c1ccnc2ccc(/C=C/c3cccnc3)cc12` [Compound 20], which IC50 [5] is on record?
**A.** Its IC50 is over 10000 nM.

**Q.** And the IC50 [2]?
**A.** The IC50 was under 1000 nM.

**Q.** What about the IC50 [4, 12] of the same molecule?
**A.** Its IC50 is 3 to 10 µM.

**Q.** Which inhibition at 1 µM ([6]; Table 3B) does the source give for `C[C@@H](NC(=O)c1ccnc2ccc(-c3ccc(Cl)cc3)cc12)C(=O)N1CC(F)(F)C[C@H]1C#N` [Compound 26] here?
**A.** The inhibition at 1 µM was 25 to 50%.

**Q.** And the IC50 [5]?
**A.** Its IC50 is over 10000 nM.

**Q.** And the IC50 [2]?
**A.** Its IC50 is under 1000 nM.

**Q.** Which inhibition at 1 µM ([6]; Table 3B) does the source give for `C[C@H](NC(=O)c1ccnc2ccc(-c3ccc(Cl)cc3)cc12)C(=O)N1CC(F)(F)C[C@H]1C#N` [Compound 27] here?
**A.** The inhibition at 1 µM was under 25%.

**Q.** What about the IC50 [5] of the same molecule?
**A.** Its IC50 is over 10000 nM.

**Q.** And the IC50 [2]?
**A.** Its IC50 is under 1000 nM.

**Q.** Which results are given for `CC(C)[C@@H](NC(=O)c1ccnc2ccc(-c3ccc(Cl)cc3)cc12)C(=O)N1CC(F)(F)C[C@H]1C#N` [Compound 28]?
**A.** inhibition at 1 µM ([6]; Table 3B): < 25%; IC50 [5]: > 10000 nM; IC50 [7]: > 10000 nM; IC50 [2]: > 10000 nM

**Q.** Which results are given for `CC(C)[C@H](NC(=O)c1ccnc2ccc(-c3ccc(Cl)cc3)cc12)C(=O)N1CC(F)(F)C[C@H]1C#N` [Compound 29]?
**A.** inhibition at 1 µM ([6]; Table 3B): < 25%; IC50 [5]: 1000 to 10000 nM; IC50 [7]: > 10000 nM; IC50 [2]: > 10000 nM

**Q.** What does the source list for `COc1ccc(-c2ccc3nccc(C(=O)NCC(=O)N4CC(F)(F)C[C@H]4C#N)c3c2)cc1` [Compound 30]?
**A.** IC50 [5]: 1000 to 10000 nM; IC50 [2]: < 1000 nM; IC50 [4, 12]: 3 to 10 µM

**Q.** For `N#C[C@@H]1CC(F)(F)CN1C(=O)CNC(=O)c1ccnc2ccc(/C=C/c3ccc4c(c3)CCNC4=O)cc12` [Compound 38], which IC50 [6] is on record?
**A.** The IC50 was under 1000 nM.

**Q.** What about the inhibition at 1 µM ([6]; Table 3B) of the same molecule?
**A.** Its inhibition at 1 µM is over 50%.

**Q.** What about the IC50 [2] of the same molecule?
**A.** The IC50 was under 1000 nM.

**Q.** And the IC50 [4, 12]?
**A.** The IC50 was over 10 µM.

**Q.** With `N#C[C@@H]1CC(F)(F)CN1C(=O)CNC(=O)c1ccnc2ccc(-c3ccc4c(c3)C(=O)NCC4)cc12` [Compound 107] as the molecule, how does the IC50 [6] read?
**A.** The IC50 was under 1000 nM.

**Q.** What about the inhibition at 1 µM ([6]; Table 3B) of the same molecule?
**A.** The inhibition at 1 µM was over 50%.

**Q.** And the IC50 [5]?
**A.** The IC50 was 1000 to 10000 nM.

**Q.** And the IC50 [2]?
**A.** Its IC50 is under 1000 nM.

**Q.** What does the source list for `CN1C(=O)CCc2cc(-c3ccc4nccc(C(=O)NCC(=O)N5CC(F)(F)C[C@H]5C#N)c4c3)ccc21` [Compound 110]?
**A.** IC50 [5]: > 10000 nM; IC50 [2]: < 1000 nM; IC50 [4, 12]: < 3 µM

**Q.** With `CN1CCc2cc(-c3ccc4nccc(C(=O)NCC(=O)N5CC(F)(F)C[C@H]5C#N)c4c3)ccc2C1=O` [Compound 111] as the molecule, how does the IC50 [6] read?
**A.** The IC50 was under 1000 nM.

**Q.** And the inhibition at 1 µM ([6]; Table 3B)?
**A.** The inhibition at 1 µM was over 50%.

**Q.** And the IC50 [5]?
**A.** Its IC50 is 1000 to 10000 nM.

**Q.** And the IC50 [2]?
**A.** Its IC50 is under 1000 nM.

**Q.** For `N#C[C@@H]1CC(F)(F)CN1C(=O)CNC(=O)c1ccnc2ccc(/C=C/c3ccc4[nH]ncc4c3)cc12` [Compound 112], which IC50 [6] is on record?
**A.** Its IC50 is under 1000 nM.

**Q.** And the inhibition at 1 µM ([6]; Table 3B)?
**A.** Its inhibition at 1 µM is over 50%.

**Q.** And the IC50 [5]?
**A.** The IC50 was under 1000 nM.

**Q.** What about the IC50 [2] of the same molecule?
**A.** Its IC50 is under 1000 nM.

**Q.** For `N#C[C@@H]1CC(F)(F)CN1C(=O)CNC(=O)c1ccnc2ccc(-c3ccc4c(c3)CCCN4)cc12` [Compound 113], which IC50 [6] is on record?
**A.** Its IC50 is under 1000 nM.

**Q.** What about the inhibition at 1 µM ([6]; Table 3B) of the same molecule?
**A.** Its inhibition at 1 µM is over 50%.

**Q.** And the IC50 [5]?
**A.** Its IC50 is 1000 to 10000 nM.

**Q.** What about the IC50 [2] of the same molecule?
**A.** The IC50 was under 1000 nM.

**Q.** With `C[C@@H](NC(=O)c1ccncc1-c1ccccc1)C(=O)N1CC(F)(F)C[C@H]1C#N` [Compound 126] as the molecule, how does the IC50 [6] read?
**A.** Its IC50 is over 10000 nM.

**Q.** What about the inhibition at 1 µM ([6]; Table 3B) of the same molecule?
**A.** The inhibition at 1 µM was under 25%.

**Q.** What about the IC50 [5] of the same molecule?
**A.** Its IC50 is over 10000 nM.

**Q.** What about the IC50 [7] of the same molecule?
**A.** Its IC50 is over 10000 nM.

**Q.** What about the IC50 [2] of the same molecule?
**A.** Its IC50 is over 10000 nM.

**Q.** For `C[C@H](NC(=O)c1ccncc1-c1ccccc1)C(=O)N1CC(F)(F)C[C@H]1C#N` [Compound 127], which IC50 [6] is on record?
**A.** The IC50 was over 10000 nM.

**Q.** And the inhibition at 1 µM ([6]; Table 3B)?
**A.** Its inhibition at 1 µM is under 25%.

**Q.** And the IC50 [5]?
**A.** Its IC50 is over 10000 nM.

**Q.** What about the IC50 [7] of the same molecule?
**A.** The IC50 was over 10000 nM.

**Q.** And the IC50 [2]?
**A.** The IC50 was over 10000 nM.

**Q.** With `N#C[C@@H]1CC(F)(F)CN1C(=O)CNC(=O)c1ccnc2ccccc12` [Ref. Comp.] as the molecule, how does the “rmFAPα (% exo inh @ 1 μM)” value [8] read?
**A.** Its value is “+++ (+++ refers to > 50% inhibition at 1 μM test compound)”.

**Q.** What about the “rhFAPα (% exo inh @ 1 μM)” value [6] of the same molecule?
**A.** The value was “+++ (+++ refers to > 50% inhibition at 1 μM test compound)”.

**Q.** What about the “rhFAPα (% exo inh @ 1 μM)” value ([6]; Table 3B) of the same molecule?
**A.** The value was “+++ (+++ refers to > 50% inhibition at 1 μM test compound)”.

**Q.** And the IC50 [9]?
**A.** The IC50 was over 10000 nM.

**Q.** And the IC50 [10]?
**A.** The IC50 was over 10000 nM.

**Q.** What does the source list for `CC(C)[C@H](N)C(=O)N1CCC[C@H]1B(O)O` [Val-boroPro, reference compound]?
**A.** stability of protease inhibitory activity [11]: rapidly loses protease inhibitory activity; IC50 ([4]; read-out: MV4-11 viability IC50, 48 hours post-treatment, Cell-Titer Glo): < 3 µM
